The values below come from paper PMC11208742, “5,7,4′‐Trimethoxyflavone triggers cancer cell PD‐L1 ubiquitin–proteasome degradation and facilitates antitumor immunity by targeting HRD1” (MedComm, 2024).

The assay addresses T1, HRD1 (HMG-CoA reductase degradation protein 1) (Homo sapiens, UniProt Q86TM6).
T1 construct: gene SYVN1; GFP-tagged wild-type HRD1 expressed in 293T cells, cell lysate (MST); endogenous untagged HRD1 in RKO cell lysate (CETSA)
Briefly: microscale thermophoresis, GFP-HRD1. Type of assay: binding.

T1 sequence (Q86TM6 whole entry): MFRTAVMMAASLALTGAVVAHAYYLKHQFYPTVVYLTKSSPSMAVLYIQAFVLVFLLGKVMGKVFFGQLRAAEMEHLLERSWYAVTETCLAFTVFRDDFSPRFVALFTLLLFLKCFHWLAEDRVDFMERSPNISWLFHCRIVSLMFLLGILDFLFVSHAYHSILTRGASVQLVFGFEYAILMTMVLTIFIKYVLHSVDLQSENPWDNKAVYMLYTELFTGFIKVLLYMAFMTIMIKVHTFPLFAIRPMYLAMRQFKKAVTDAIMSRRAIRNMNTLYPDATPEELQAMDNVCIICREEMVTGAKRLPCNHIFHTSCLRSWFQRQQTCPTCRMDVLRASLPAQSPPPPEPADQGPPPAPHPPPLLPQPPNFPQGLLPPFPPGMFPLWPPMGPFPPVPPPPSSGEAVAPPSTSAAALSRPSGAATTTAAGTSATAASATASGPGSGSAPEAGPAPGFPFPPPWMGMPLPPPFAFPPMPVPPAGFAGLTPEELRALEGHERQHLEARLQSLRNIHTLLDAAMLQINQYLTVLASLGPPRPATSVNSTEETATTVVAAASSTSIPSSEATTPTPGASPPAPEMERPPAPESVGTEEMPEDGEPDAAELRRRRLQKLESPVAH

What is called Kd is a measure of binding affinity in units of concentration. High values mean a looser complex, low ones a tighter complex. `COc1ccc(-c2cc(=O)c3c(OC)cc(OC)cc3o2)cc1` [TF] returned a Kd of 8.02 µM.
